According to PubChem BioAssay (NCI):
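A five-concentration, 48-hour dose response in 96-well plates underlies each endpoint, interpolated linearly between surrounding concentrations. GI50 is the concentration that inhibits growth by half. The concentration for full growth arrest is given as TGI.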

Legend:
Test in all cases: NCI tumour cell line growth inhibition, 48 h
COLO 205 colon = system: COLO 205 colon
DU-145 prostate = system: DU-145 prostate
HCT-15 colon = system: HCT-15 colon
KM12 colon = system: KM12 colon
MOLT-4 leukemia = system: MOLT-4 leukemia
OVCAR-4 ovarian = system: OVCAR-4 ovarian
RXF 393 renal = system: RXF 393 renal
SK-MEL-28 melanoma = system: SK-MEL-28 melanoma
SK-MEL-5 melanoma = system: SK-MEL-5 melanoma
UACC-62 melanoma = system: UACC-62 melanoma

SMILES	GI50 (COLO 205 colon) [µM]	TGI (COLO 205 colon) [µM]	GI50 (DU-145 prostate) [µM]	TGI (DU-145 prostate) [µM]	GI50 (HCT-15 colon) [µM]	TGI (HCT-15 colon) [µM]	GI50 (KM12 colon) [µM]	TGI (KM12 colon) [µM]	GI50 (MOLT-4 leukemia) [µM]	TGI (MOLT-4 leukemia) [µM]	GI50 (OVCAR-4 ovarian) [µM]	TGI (OVCAR-4 ovarian) [µM]	GI50 (RXF 393 renal) [µM]	TGI (RXF 393 renal) [µM]	GI50 (SK-MEL-28 melanoma) [µM]	TGI (SK-MEL-28 melanoma) [µM]	GI50 (SK-MEL-5 melanoma) [µM]	TGI (SK-MEL-5 melanoma) [µM]	GI50 (UACC-62 melanoma) [µM]	TGI (UACC-62 melanoma) [µM]
CN(C)[C@@H]1C(=O)C(C(=O)NCc2nc3[nH]cnc(=S)c3[nH]2)=C(O)[C@@]2(O)C(=O)C3=C(O)c4c(O)cccc4[C@@](C)(O)[C@H]3C[C@@H]12	3.87	> 100	4.43	> 100	5.66	> 100	5.01	> 100	5.04	> 100	1.13	> 100	26.1	> 100	> 100	> 100	24.8	> 100	2.91	> 100
COc1cc2c(cc1OCCN1CCN(CCN3C(=O)c4cccc5cccc(c45)C3=O)CC1)N=C[C@@H]1CCCN1C2=O	24.8	44.8	16.9	30.6	15.8	31.1	18.2	39	24.6	62.2	24.6	47.3	14.2	32.2	32.5	77.7	16	29.5	18.2	35
CN(C)CCCC1(c2ccc(F)cc2)OCc2cc(-c3csc4ccccc34)ccc21 (stereo not given)	1.73	3.79	1.72	3.15	1.64	3.07	1.71	3.16	1.79	3.52	1.68	3.28	1.54	2.95	1.68	3.07	1.77	3.17	1.69	3.13
C#CCCCCCC(=O)N[C@H]1C=C[C@@H]2/C=C(C)/C=C/[C@@H](C)[C@H]([C@H](C)[C@H](O)[C@@H](C)NC(C)=O)OC(=O)/C=C/C=C(C)\C=C\[C@]2(C)C1	0.00414	4.06	0.0157	> 40	0.00804	> 40	0.00501	> 40	6.79	> 40	3.06	> 40	< 0.004	2.48	0.00795	12.3	< 0.004	0.00803	0.023	9.04
Cc1cccc(Oc2ccc(Nc3ncnc4ccc(NC(=O)CN(C)C)cc34)cc2Cl)c1	1.71	3.48	2.14	10.8	1.6	3.13	2	4.09	2.37	6.82	1.7	5.59	1.61	3.19	1.85	3.48	1.64	3.03	1.71	3.38
COc1cc(NC(=O)COc2ccccc2)c(C(N)=O)cc1OC	0.453	5.13	0.914	> 100	0.804	> 100	0.442	> 100	2.91	> 100	> 100	> 100	1.69	9.52	24.2	> 100	0.766	> 100	2.52	> 100
O=C1C[C@@H]2OCC=C3C[N+]4([O-])CC[C@]56c7ccccc7N1[C@H]5[C@H]2[C@H]3C[C@@H]64 (stereo not given in full)	> 100	> 100	> 100	> 100	> 100	> 100	> 100	> 100	> 100	> 100	> 100	> 100	> 100	> 100	> 100	> 100	> 100	> 100	> 100	> 100
CC[C@]12C=CCN3CC[C@@]4(c5ccc(OC)cc5N(C)[C@H]4[C@@](O)(C(=O)OC)[C@@H]1OC(=O)CCCN1CCN(CCCC(=O)O[C@@H]4[C@]5(CC)C=CCN6CC[C@@]7(c8ccc(OC)cc8N(C)[C@H]7[C@@]4(O)C(=O)OC)[C@@H]65)CC1)[C@@H]32	1.67	3.25	0.701	1.99	1.2	2.61	0.985	2.31	0.483	1.87	1.11	2.44	0.484	1.72	1.4	2.78	1.48	2.83	1.68	3.13
COc1cc2c3c(n(CCCN)c(=O)c2cc1OC)-c1ccc(N)cc1C3=O	0.554	10.2	1.64	9.03	24.4	> 100	9.26	> 74.2	0.527	4.7	1.57	11.6	1.07	7.22	2.16	14.7	0.902	2.88	1.08	10.7
O=C(O)CSc1cc(NS(=O)(=O)c2ccc(Br)cc2)c2ccccc2c1O	13.1	28.4	16.5	30.1	13.3	30.7	11.6	25.7	3.08	> 23.3	1.62	3.05	13.8	27.9	14.5	29	14.7	27.9	7.81	23.4
CC1(C)CC2=NO[Se]3=C2C(=NO3)C1	–	3.73	–	10.4	–	11.5	–	13.8	–	9.41	–	21.7	–	9.18	–	16.6	–	3.28	–	6.63
CC(=O)O[C@H]([C@H](OC(C)=O)[C@H](C)OC(C)=O)[C@@H](/C=C/[C@H]1CC=CC(=O)O1)OC(C)=O	37.1	> 100	38.2	> 100	44.9	> 100	> 100	> 100	72.7	> 100	34.7	> 100	> 100	> 100	39.2	> 100	33.2	> 100	> 100	> 100
